Patent publication US20260285850A1, “SUBSTITUTED OXAZOLIDINONES AND IMIDAZOLINONES AS HERBICIDES” (FMC CORPORATION, priority 2023, published 2026)

Legend:
Format in all cases: in vivo
[1] = tested on: palmer (palmer amaranth, palmer pigweed, Amaranthus palmeri); assay: Test A preemergence soil spray, visual injury rating 0-100; conditions: 10 days
Method in brief: (§1)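 Compound in a non-phytotoxic, surfactant-containing solvent is applied either as a directed soil spray before seedlings emerge or onto emerged plants 2-10 cm tall; pots hold a loam-sand blend. Plants grow 10 days under greenhouse conditions and are rated by eye against untreated controls (0 no effect, 100 complete control).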

[2] = tested on: green foxtail (Setaria viridis); assay: as above; conditions: 10 days
Method in brief: as §1

[3] = tested on: corn (Zea mays); assay: as above; conditions: 10 days
Method in brief: as §1

[4] = tested on: ryegrass, Italian (italian ryegrass, Lolium multiflorum); assay: as above; conditions: 10 days
Method in brief: as §1

[5] = tested on: wheat (Triticum aestivum); assay: as above; conditions: 10 days
Method in brief: as §1

[6] = tested on: ragweed (common ragweed, Ambrosia artemisiifolia); assay: as above; conditions: 10 days
Method in brief: as §1

[7] = tested on: kochia (Bassia scoparia); assay: as above; conditions: 10 days
Method in brief: as §1

[8] = tested on: soybean (Glycine max); assay: as above; conditions: 10 days
Method in brief: as §1

[9] = tested on: barnyardgrass (Echinochloa crus-galli); assay: as above; conditions: 10 days
Method in brief: as §1

[10] = tested on: oat, wild (wild oat, Avena fatua); assay: as above; conditions: 10 days
Method in brief: as §1

[11] = tested on: blackgrass (Alopecurus myosuroides); assay: as above; conditions: 10 days
Method in brief: as §1

[12] = tested on: ducksalad (Heteranthera limosa); assay: Test B flooded paddy test, visual plant response rating 0-100; conditions: 250 g ai/ha, Flood, applied to paddy water, evaluated after 13 days
Method in brief: (§2)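 Visual evaluation after 13 days. Water-applied treatment, 3 cm flood depth held constant, plants at 2-leaf stage at treatment.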

[13] = tested on: rice (Oryza sativa); assay: as above; conditions: 250 g ai/ha, Flood, applied to paddy water, evaluated after 13 days
Method in brief: as §2

[14] = tested on: barnyardgrass (Echinochloa crusgalli); assay: as above; conditions: 250 g ai/ha, Flood, applied to paddy water, evaluated after 13 days
Method in brief: as §2

[15] = tested on: sedge, umbrella (small-flower umbrella sedge, Cyperus difformis); assay: as above; conditions: 250 g ai/ha, Flood, applied to paddy water, evaluated after 13 days
Method in brief: as §2

[16] = tested on: palmer (palmer amaranth, palmer pigweed, Amaranthus palmeri); assay: Test A postemergence application, visual injury rating 0-100
Method in brief: as §1

[17] = tested on: green foxtail (Setaria viridis); assay: as above
Method in brief: as §1

[18] = tested on: corn (Zea mays); assay: as above
Method in brief: as §1

[19] = tested on: ryegrass, Italian (italian ryegrass, Lolium multiflorum); assay: as above
Method in brief: as §1

[20] = tested on: wheat (Triticum aestivum); assay: as above
Method in brief: as §1

[21] = tested on: ragweed (common ragweed, Ambrosia artemisiifolia); assay: as above
Method in brief: as §1

[22] = tested on: kochia (Bassia scoparia); assay: as above
Method in brief: as §1

[23] = tested on: soybean (Glycine max); assay: as above
Method in brief: as §1

[24] = tested on: horseweed (Erigeron canadensis); assay: as above
Method in brief: as §1

[25] = tested on: barnyardgrass (Echinochloa crus-galli); assay: as above
Method in brief: as §1

[26] = tested on: oat, wild (wild oat, Avena fatua); assay: as above
Method in brief: as §1

[27] = tested on: blackgrass (Alopecurus myosuroides); assay: as above
Method in brief: as §1

[28] = tested on: galium (catchweed bedstraw, Galium aparine); assay: as above; conditions: Postemergence, 16 g ai/ha, greenhouse 10 days; 0 no effect, 100 complete control
Method in brief: as §1

[29] = 62 g ai/ha, 0 = no effect, 100 = complete control
[30] = 62 g ai/ha, postemergence, 10 days, 0 = no effect, 100 = complete control
[31] = Postemergence, 16 g ai/ha, greenhouse 10 days, 0 no effect, 100 complete control

SMILES: CC1(C(=O)NC2CC=C(C(=O)NS(=O)(=O)C3CC3)C2)CN(c2cc(F)cc(F)c2)C(=O)O1 (racemic) [Compound 90]
- Pigweed, Palmer plant response rating ([1]; 16 g ai/ha, 0 to 100 scale): 10
- Pigweed, Palmer plant response rating (0-100) [1, 29]: 20
- Foxtail, Green plant response rating ([2]; 16 g ai/ha, 0 to 100 scale): 0
- Foxtail, Green plant response rating (0-100) [2, 29]: 10
- Corn plant response rating ([3]; 16 g ai/ha, 0 to 100 scale): 0
- Corn plant response rating (0-100) [3, 29]: 0
- Ryegrass, Italian plant response rating ([4]; 16 g ai/ha, 0 to 100 scale): 0
- Ryegrass, Italian plant response rating (0-100) [4, 29]: 0
- Wheat plant response rating ([5]; 16 g ai/ha, 0 to 100 scale): 0
- Wheat plant response rating (0-100) [5, 29]: 0
- Ragweed plant response rating ([6]; 16 g ai/ha, 0 to 100 scale): 0
- Ragweed plant response rating (0-100) [6, 29]: 0
- Kochia plant response rating ([7]; 16 g ai/ha, 0 to 100 scale): 0
- Kochia plant response rating (0-100) [7, 29]: 0
- Soybean plant response rating ([8]; 16 g ai/ha, 0 to 100 scale): 0
- Soybean plant response rating (0-100) [8, 29]: 10
- Barnyardgrass plant response rating ([9]; 16 g ai/ha, 0 to 100 scale): 0
- Barnyardgrass plant response rating (0-100) [9, 29]: 0
- Oat, Wild plant response rating ([10]; 16 g ai/ha, 0 to 100 scale): 0
- Oat, Wild plant response rating (0-100) [10, 29]: 0
- Blackgrass plant response rating ([11]; 16 g ai/ha, 0 to 100 scale): 0
- Blackgrass plant response rating (0-100) [11, 29]: 0
- Plant response rating, Ducksalad (0 to 100 scale, 0 is no effect and 100 is complete control) [12]: 0
- Plant response rating, Rice (0 to 100 scale, 0 is no effect and 100 is complete control) [13]: 0
- Plant response rating, Barnyardgrass (0 to 100 scale, 0 is no effect and 100 is complete control) [14]: 0
- Plant response rating, Sedge, Umbrella (0 to 100 scale, 0 is no effect and 100 is complete control) [15]: 0
- Pigweed, Palmer plant response rating (0-100) [16, 30]: 70
- Pigweed, Palmer plant response rating (0 to 100 scale) [16, 31]: 0
- Foxtail, Green plant response rating (0-100) [17, 30]: 80
- Foxtail, Green plant response rating (0 to 100 scale) [17, 31]: 0
- Corn plant response rating (0-100) [18, 30]: 100
- Corn plant response rating (0 to 100 scale) [18, 31]: 30
- Ryegrass, Italian plant response rating (0-100) [19, 30]: 70
- Ryegrass, Italian plant response rating (0 to 100 scale) [19, 31]: 20
- Wheat plant response rating (0-100) [20, 30]: 70
- Wheat plant response rating (0 to 100 scale) [20, 31]: 40
- Ragweed plant response rating (0-100) [21, 30]: 30
- Ragweed plant response rating (0 to 100 scale) [21, 31]: 0
- Kochia plant response rating (0-100) [22, 30]: 80
- Kochia plant response rating (0 to 100 scale) [22, 31]: 70
- Soybean plant response rating (0-100) [23, 30]: 40
- Soybean plant response rating (0 to 100 scale) [23, 31]: 30
- Horseweed plant response rating (0-100) [24, 30]: 60
- Horseweed plant response rating (0 to 100 scale) [24, 31]: 0
- Barnyardgrass plant response rating (0-100) [25, 30]: 90
- Barnyardgrass plant response rating (0 to 100 scale) [25, 31]: 30
- Oat, Wild plant response rating (0-100) [26, 30]: 50
- Oat, Wild plant response rating (0 to 100 scale) [26, 31]: 20
- Blackgrass plant response rating (0-100) [27, 30]: 80
- Blackgrass plant response rating (0 to 100 scale) [27, 31]: 10
- Galium plant response rating (0 to 100 scale) [28]: 40
